Experimental data published in patent publication US20230332232A1, “COMPOSITIONS AND METHODS FOR DIAGNOSING AND TREATING A DYSTONIA” (Duke University, priority 2020, published 2023).

System: DYT1 knockin (Tor1a^delGAG/+) murine embryonic fibroblasts (MEFs)
Assay: microRNA-seq of EVs from DYT1 MEFs treated with drug, compared with non-treated DYT1 MEFs
Type: cell-based, mouse
Conditions: for Abs Z Score Sum (Geno + RTV) / RTV Direction Opposite dE?: EVs of DYT1 (Het) MEFs
Protocol: In addition to proteomic analysis, total RNA-seq and microRNA-seq was performed on RNA isolated in parallel from the EV samples of Cohort 2. As with the proteomic analysis, one biological replicate was prepared from 3 distinct biological clonal cell lines for each genotype. Here, EVs were isolated from conditioned cell culture media by 18 hour ultracentrifugation at 100,000 g. RNA was extracted using the Qiagen miRNeasy Micro Kit (Cat. No. 217084) according to the manufacturer's protocol. Two RNA fractions were extracted from each sample, one enriched in coding and non-coding RNA species>200 nt (“Total RNA” fraction) and one enriched for small RNAs<200 nt (“miRNA” fraction). RNA samples were then submitted to the Duke Sequencing and Genomic Technologies shared resource for further quality control and sequencing. Samples were assessed for concentration and integrity by Qubit and Fragment Analyzer. The miRNA fractions were 4.16 ng/μL-47.57 ng/μL and total RNA fractions were 3.8 ng/μL-43.6 ng/μL. The small RNA library was prepared using the QIAseq miRNA Library Kit (Cat No./ID: 331505) and sequenced on the Illumina NextSeq 500 High-Output platform with 75 bp single-reads. The total RNA library was prepared using the Illumina TruSeq Stranded Total RNA-seq Kit with Ribozero Gold ribosomal RNA reduction and sequenced on the Illumina NovaSeq 6000 S1 platform with 100 bp paired-end reads. Sequencer lane pooling and read depth are attached in the Excel data summary (See “RNA QC” Tab). Data processing and analysis were performed in collaboration with the Duke Genomic Analysis and Bioinformatics shared resource. RNA-seq data was processed using the TrimGalore toolkit (http://www.bioinformatics.babraham.ac.uk/projects/trim_galore), which employs Cutadapt(Martin M. (2011) EMBnet.journal. 17(1):10-12) to trim low quality bases and Illumina sequencing adapters from the 3' end of the reads. Only reads that were 20 nt or longer after trimming were kept for further analysis. Reads were mapped to the mouse genome and transcriptome ([…], et al. (2012) Nucleic Acids Res. 40(Database issue):[…]-97) using the STAR RNA-seq alignment tool (Dobin A, et al. (2013). Bioinformatics. 29(1):15-21). If the reads mapped to a single genomic location, then they were kept for subsequent analysis. Gene counts were compiled using the HTSeq tool (http://www-huber.embl.de/users/anders/HTSeq/). Only genes that had at least 10 reads in any given library were used in subsequent analysis. Normalization and differential expression was carried out using the DESeq26 Bioconductor (Huber W, et al. (2015) Nat Methods. 12(2):115-121) package with the R statistical programming environment (www.r-project.org). […] 694 miRNAs were initially examined with respect to QC, genotype, RTV effects, and ISRIB effects. This subset was the “Full miRNA” subset. FIG. 9A and FIG. 9B show the RTV effect on EV composition in DYT1 cells compared to WT cells for 279 miRNAs, respectively. […] Beginning with the 694 miRNAs in the “Full miRNA” subset, more than 60 molecules were detected in either WT cells or DYT1 cells (WT or Het UMI>60). […] The candidate miRNAs were ranked by the sum of genotype-dependent absolute Z-scores and RTV-induced absolute Z-scores (Abs Z Score Sum (Geno+RTV)). This subset was the “miRNA-Ritonavir Therapeutic Efficacy” subset and contained 201 miRNAs.

[1] = sum of genotype and RTV absolute Z-scores

SMILES: CC(C)c1nc(CN(C)C(=O)N[C@H](C(=O)N[C@@H](Cc2ccccc2)C[C@H](O)[C@H](Cc2ccccc2)NC(=O)OCc2cncs2)C(C)C)cs1 [RTV, Ritonavir]
- RTVvHet Z Score (mmu-miR-183-5p): 3.42
- Abs Z Score Sum (Geno + RTV) (mmu-miR-183-5p): 5.55
- RTV Direction Opposite dE? (mmu-miR-183-5p): yes
- RTVvHet Z Score (mmu-miR-185-5p): 0.53
- RTVvHet Z Score (mmu-miR-186-5p): 0.33
- RTVvHet Z Score (mmu-miR-187-3p): 1.13
- Abs Z Score Sum (Geno + RTV) (mmu-miR-187-3p): 3.96
- RTV Direction Opposite dE? (mmu-miR-187-3p): yes
- RTVvHet Z Score (mmu-miR-188-5p): 0.34
- RTVvHet Z Score (mmu-miR-190b-5p): 0.28
- RTVvHet Z Score (mmu-miR-191-5p): 0.28
- RTVvHet Z Score (mmu-miR-192-5p): 0.54
- Abs Z Score Sum (Geno + RTV) (mmu-miR-192-5p): 3.38
- RTV Direction Opposite dE? (mmu-miR-192-5p): yes
- RTVvHet Z Score (mmu-miR-194-5p): 0.46
- RTVvHet Z Score (mmu-miR-199a-3p): 1.07
- RTV Direction Opposite dE? (mmu-miR-199a-3p): yes
- RTVvHet Z Score (mmu-miR-199b-3p): 1.17
- RTV Direction Opposite dE? (mmu-miR-199b-3p): yes
- RTVvHet Z Score (mmu-miR-206-3p): 0.20
- RTVvHet Z Score (mmu-miR-214-5p): 1.09
- RTVvHet Z Score (mmu-miR-219a-5p): 1.08
- RTVvHet Z Score (mmu-miR-223-3p): −0.59
- RTVvHet Z Score (mmu-miR-224-5p): 0.28
- RTVvHet Z Score (mmu-miR-296-3p): 3.08
- Abs Z Score Sum (Geno + RTV) (mmu-miR-296-3p): 5.10
- RTV Direction Opposite dE? (mmu-miR-296-3p): yes
- RTVvHet Z Score (mmu-miR-298-5p): 3.59
- Abs Z Score Sum (Geno + RTV) (mmu-miR-298-5p): 6.72
- RTV Direction Opposite dE? (mmu-miR-298-5p): yes
- RTVvHet Z Score (mmu-miR-299a-3p): 1.31
- RTVvHet Z Score (mmu-miR-301a-3p): 1.45
- RTVvHet Z Score (mmu-miR-301b-3p): 1.05
- RTVvHet Z Score (mmu-miR-320-3p): 0.76
- RTVvHet Z Score (mmu-miR-322-5p): 0.75
- RTVvHet Z Score (mmu-miR-324-3p): 0.82
- RTVvHet Z Score (mmu-miR-335-Sp): 1.02
- RTVvHet Z Score (mmu-miR-340-5p): 1.09
- RTVvHet Z Score (mmu-miR-344-3p): 1.30
- Abs Z Score Sum (Geno + RTV) (mmu-miR-344-3p): 4.24
- RTV Direction Opposite dE? (mmu-miR-344-3p): yes
- RTVvHet Z Score (mmu-miR-350-3p): 0.41
- RTVvHet Z Score (mmu-miR-361-5p): 0.71
- RTVvHet Z Score (mmu-miR-362-3p): 1.05
- RTV Direction Opposite dE? (mmu-miR-362-3p): yes
- RTVvHet Z Score (mmu-miR-362-5p): 0.83
- Abs Z Score Sum (Geno + RTV) (mmu-miR-362-5p): 3.62
- RTV Direction Opposite dE? (mmu-miR-362-5p): yes
- RTVvHet Z Score (mmu-miR-378a-3p): 1.25
- RTVvHet Z Score (mmu-miR-450a-5p): 0.39
- RTVvHet Z Score (mmu-miR-450b-3p): 0.31
- RTVvHet Z Score (mmu-miR-451a): −1.37
- RTVvHet Z Score (mmu-miR-483-5p): 0.01
- RTVvHet Z Score (mmu-miR-500-3p): 1.09
- RTVvHet Z Score (mmu-miR-503-3p): 0.99
- RTVvHet Z Score (mmu-miR-532-5p): 0.52
- Abs Z Score Sum (Geno + RTV) (mmu-miR-532-5p): 3.77
- RTV Direction Opposite dE? (mmu-miR-532-5p): yes
- RTVvHet Z Score (mmu-miR-542-3p): 0.81
- RTVvHet Z Score (mmu-miR-542-5p): 2.00
- Abs Z Score Sum (Geno + RTV) (mmu-miR-542-5p): 7.20
- RTV Direction Opposite dE? (mmu-miR-542-5p): yes
- RTVvHet Z Score (mmu-miR-582-3p): 0.20
- RTVvHet Z Score (mmu-miR-652-3p): 0.93
- RTVvHet Z Score (mmu-miR-671-5p): 1.76
- RTV Direction Opposite dE? (mmu-miR-671-5p): yes
- RTVvHet Z Score (mmu-miR-700-3p): 0.49
- RTVvHet Z Score (mmu-miR-708-5p): 1.28
- RTVvHet Z Score (mmu-miR-872-5p): 0.68
- RTVvHet Z Score (mmu-miR-1291): 1.91
- Abs Z Score Sum (Geno + RTV) (mmu-miR-1291): 3.34
- RTV Direction Opposite dE? (mmu-miR-1291): yes
- RTVvHet Z Score (mmu-miR-1843a-5p): 0.28
- RTVvHet Z Score (mmu-miR-3102-3p): 0.95
- RTVvHet Z Score (mmu-miR-3535): 1.43
- Abs Z Score Sum (Geno + RTV) (mmu-miR-3535): 3.67
- RTV Direction Opposite dE? (mmu-miR-3535): yes
- RTVvHet Z Score (mmu-miR-5121): 2.65
- Abs Z Score Sum (Geno + RTV) (mmu-miR-5121): 4.47
- RTV Direction Opposite dE? (mmu-miR-5121): yes
- Abs Z Score Sum (Geno + RTV) (mmu-miR-30h-5p): 3.25
- RTV Direction Opposite dE? (mmu-miR-30h-5p): yes
- RTVvHet Z Score (mmu-miR-30d-5p): 0.70
- RTVvHet Z Score (mmu-miR-344d-3p): 1.98
- Abs Z Score Sum (Geno + RTV) (mmu-miR-344d-3p): 4.51
- RTV Direction Opposite dE? (mmu-miR-344d-3p): yes
- mmu-miR-147-5p: Abs Z Score Sum (Geno + RTV) [1]: 0.20
- mmu-miR-181a-1-3p: Abs Z Score Sum (Geno + RTV) [1]: 0.18
- mmu-miR-331-5p: Abs Z Score Sum (Geno + RTV) [1]: 0.00
- mmu-miR-668-3p: Abs Z Score Sum (Geno + RTV) [1]: 0.42
- mmu-miR-1930-5p: Abs Z Score Sum (Geno + RTV) [1]: 0.38
- mmu-miR-1943-5p: Abs Z Score Sum (Geno + RTV) [1]: 0.23
- mmu-miR-1955-5p: Abs Z Score Sum (Geno + RTV) [1]: 0.00
- mmu-miR-3072-5p: Abs Z Score Sum (Geno + RTV) [1]: 0.38
- mmu-miR-3076-3p: Abs Z Score Sum (Geno + RTV) [1]: 0.00
- mmu-miR-3088-3p: Abs Z Score Sum (Geno + RTV) [1]: 0.18
- mmu-miR-6936-3p: Abs Z Score Sum (Geno + RTV) [1]: 0.38
- mmu-miR-7224-3p: Abs Z Score Sum (Geno + RTV) [1]: 0.22
- mmu-miR-467d-3p: Abs Z Score Sum (Geno + RTV) [1]: 0.32
